Source: publication PMC7266154 (RNA, 2020)

System: protein synthesis in E. coli S30 extract
Assay type: biochemical, Escherichia coli
Details: read-out: IC50, inhibition of firefly luciferase synthesis, 37°C, 30 min, luciferase activity, three independent measurements

Row | Compound | IC50
1 | CC[C@H]1OC(=O)[C@H](C)[C@@H](O[C@H]2C[C@@](C)(OC)[C@@H](O)[C@H](C)O2)[C@H](C)[C@@H](O[C@@H]2O[C@H](C)C[C@H](N(C)C)[C@H]2O)[C@](C)(O)C[C@@H](C)[C@@H]2N[C@@H](COCCOC)O[C@H]([C@H]2C)[C@]1(C)O [DIR, dirithromycin] | 190 ± 20 nM
2 | CC[C@H]1OC(=O)[C@H](C)[C@@H](O[C@H]2C[C@@](C)(OC)[C@@H](O)[C@H](C)O2)[C@H](C)[C@@H](O[C@@H]2O[C@H](C)C[C@H](N(C)C)[C@H]2O)[C@](C)(O)C[C@@H](C)C(=O)[C@H](C)[C@@H](O)[C@]1(C)O [ERY, erythromycin] | 320 ± 20 nM
